Data: patent publication US5968751A, “Method for detecting the presence of protein C antibody in a fluid sample” (The Scripps Research Institute, priority 1997, dated 1999)
No end group written: not given here.

Columns and labels:
Assay type in all cases: biochemical
APC [1] = target: T1, APC (Homo sapiens, UniProt P04070); experiment: APTT and Xa-1-stage coagulation assays, inhibition of APC anticoagulant activity; design: Protein C consists of a 155 amino acid residue light chain and a 262 amino acid residue heavy chain; from tissue; host or cells: human plasma factor IX concentrate
Method: The effect of the synthetic peptides on APC anticoagulant activity were determined using the APTT assay in the presence of either normal citrate anticoagulated plasma (NHP) or protein S depleted plasma (PSDP). The assays were performed essentially as described. See Marlar et al., Blood, 59:1067-1072 […]; Suzuki et al., J. Biol. Chem., 258:163-168 (1983); Gruber et al., Blood, 73:639-642 (1989); Ohlin et al., Biochem., 29:644-651 (1990). NHP was purchased from George King Bio-Medical, Inc. (Overland Park, Kans.). PSDP was prepared from a normal human citrate-anticoagulated plasma pool from ten healthy donors. Protein S was immunodepleted from the NHP by immunoaffinity chromatography of NHP over an anti-protein S antibody column to form PSDP. The anti-protein S antibody column was prepared by coupling 100 mg of a monoclonal, high-affinity, calcium-independent anti-PS antibody, designated S7, to 30 ml of CNBr-activated Sepharose 4B (Pharmacia) as described in Example 2cl).
For the APTT assay, APC was prepared as described in Example 2c2). […] The concentration of the APC used in the assay was initially optimized with respect to the sensitivity of the assay towards APC-induced prolongation of clotting time compared to clotting time without APC.
Once the optimal concentration of APC was determined, peptides from the heavy and light chains of PC and control scrambled peptides listed below in Example 5a2) in Tables 6 and 7 were then separately admixed for a final concentration of 500 μM with 10 nM APC in 100 μl of TBS-BSA at pH 7.4 to form peptide-APC admixtures. Peptides were prepared as described in Example 1. The resulting admixtures were maintained for ten minutes at 37° C. Separate aliquots of peptides maintained under the same conditions in the absence of APC served as controls for the inhibitory effect of synthetic peptides on APC anticoagulant activity. After the maintenance period, 100 μl of NHP and 100 μl APTT-reagent Thrombosil (Ortho Diagnostics, Raritan, N.J.) were admixed into each peptide admixture and maintained for 200 seconds at 37° C. to form a pre-coagulation admixture. In some experiments, PSDP was used in the place of NHP to determine the effect of Protein S on the assay system. Coagulation was then initiated by the admixture of 100 μl of 30 mM CaCl2 in TBS prewarmed to 37° C. to each of the pre-coagulation admixtures. The time for clot formation was measured by an Electra 700 Automatic Coagulation Timer (Medical Laboratory Automation, Inc., Mount Vernon, N.Y.). Each peptide's effect was determined in duplicate.
For peptides at a concentration of 500 μM that inhibited at least 50% of APC anticoagulant activity, analysis of dose-response was subsequently conducted.
For testing the inhibition of the synthetic peptides on APC activity described above, Xa-1-stage coagulation assays were also performed as described. See Seegers et al., Thrombosis Res., 13:233-243 (1978); Marlar et al., supra; and Walker et al., J. Biol. Chem., 265:1484-1489 (1990).
Target sequence in this assay (P04070 43-197 limits assumed): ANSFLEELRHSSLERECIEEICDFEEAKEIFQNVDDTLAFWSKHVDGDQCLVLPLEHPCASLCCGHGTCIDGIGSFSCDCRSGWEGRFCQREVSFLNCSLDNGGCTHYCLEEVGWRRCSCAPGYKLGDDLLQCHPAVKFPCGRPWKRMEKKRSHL
Target sequence in this assay (P04070 212-450 limits assumed): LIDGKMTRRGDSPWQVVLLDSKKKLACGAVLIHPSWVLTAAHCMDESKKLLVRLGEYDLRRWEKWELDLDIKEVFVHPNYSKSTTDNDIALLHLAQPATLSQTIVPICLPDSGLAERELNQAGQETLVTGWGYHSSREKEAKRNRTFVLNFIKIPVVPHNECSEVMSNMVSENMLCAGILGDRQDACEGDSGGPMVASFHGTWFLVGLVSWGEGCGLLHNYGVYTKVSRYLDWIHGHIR

APC [2] = target: T1, APC; experiment: inhibition of APC by recombinant mutant (Arg358)-α1-antitrypsin, time course; design: Protein C consists of a 155 amino acid residue light chain and a 262 amino acid residue heavy chain; from tissue; alpha1-AT mutant from Transgene, Strasbourg; conditions: 250 μM PC311-325, 500 μM PC142-155; 18 nM APC, 100 nM α1-AT
Method: Kinetic studies of inhibition of APC were performed with the higher affinity mutant α1 -AT pseudo-substrate. For the assay, 60 μl of 36 nM APC and/or 60 μl of 200 nM recombinant (Arg^358)-α1 -AT prepared in TBS-BSA at pH 7.4 containing 0.02% NaN3 and 2 mM CaCl2 were separately admixed with 500 μM PC311-325 or 1 mM PC142-155 and maintained for 30 minutes at 37° C. to form APC-peptide and/or α1 -AT-peptide admixtures for each peptide tested, respectively. Thereafter, the peptide-treated APC and α1 -AT admixtures were combined to form a reaction admixture. At selected time points, 8 μl aliquots from the reaction admixture were removed and admixed with 300 μl 0.8 mM S-2366 in TBS-BSA at pH 8.0 containing 0.02% NaN3 to initiate the hydrolysis of S-2366 by APC. The change in absorbance was measured over time as described in the amidolytic assay. […]
Since the number of amino acid residues involved in neutralization of APC by macromolecular plasma protease inhibitors is likely to be higher than the number of residues of APC involved in the cleavage of a small chromogenic substrate such as S-2366, the effect of anti-PC317-331 antibody on the time course of inhibition of APC by a larger pseudo-substrate, such as recombinant mutant (Arg^358)-α1 -AT was evaluated. […] The change in absorbance was measured over time as described in the amidolytic assay. […]
Target sequence in this assay (P04070 43-197): as the sequence (P04070 43-197 limits assumed) above
Target sequence in this assay (P04070 212-461): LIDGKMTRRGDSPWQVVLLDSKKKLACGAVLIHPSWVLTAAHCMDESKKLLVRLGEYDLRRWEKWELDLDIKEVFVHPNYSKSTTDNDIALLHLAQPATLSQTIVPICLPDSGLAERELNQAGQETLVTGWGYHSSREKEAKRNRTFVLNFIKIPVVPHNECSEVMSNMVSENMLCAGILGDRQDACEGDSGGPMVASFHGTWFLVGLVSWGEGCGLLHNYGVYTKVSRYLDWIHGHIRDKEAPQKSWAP

thrombin = thrombin (Homo sapiens, UniProt P00734); experiment: clotting of purified fibrinogen by thrombin
[3] = mean values of APTT and Xa-1 stage assays, NHP, control peptide at 500 μM (±10%)

IC50 (concentration of peptide that inhibits 50% of APC anticoagulant activity) (APC [1]; [3])	IC90 ** μM (concentration of peptide that inhibits 90% of APC anticoagulant activity) (APC [1]; [3])	effect on APC anticoagulant activity (APC [1]; various concentrations up to 500 μM peptide)	Substance	90% inhibition of APC anticoagulant activity (APC [1]; APTT and Xa-1-stage assays in NHP and PSDP)	IC50 (APC [1]; APTT and Xa-1-stage assays in NHP and PSDP, read-out: 50% inhibition of APC anticoagulant activity) [µM]	effect on the time course of inhibition of APC by recombinant (Arg358)α1-AT (APC [2])	effect on the clotting of purified fibrinogen by thrombin (thrombin)
–	–	–	KRNRTFVLNFIKIPV-NH2 [PC311-325, Lys-Arg-Asn-Arg-Thr-Phe-Val-Leu-Asn-Phe-Ile-Lys-Ile-Pro-Val]	approximately 50 μM	7 to 20	did not have any significant effect	no effect
–	–	–	MHKLREGKWRPKSR [Scrambled peptide, reference compound]	–	–	–	no effect
no effect	no effect	no significant effect	VKFTIRVFNPRNLKI [Control Peptide, reference compound]	–	–	–	–
